Test results: patent US4980357A, “Azolidinedione derivatives” (Pfizer Inc., priority 1990, dated 1990)

Tests used:
[1] = system: sorbitol accumulation in the sciatic nerve; assay: inhibition of sorbitol accumulation in the sciatic nerve of streptozotocinized (diabetic) rats; format: in vivo, rat; conditions: oral, 0.1-10.0 mg./kg., in words
Method: (§1) The activity of the compounds of the present invention, as agents for the control of chronic diabetic complications, is determined by their ability to successfully pass one or more of the following standard biological or pharmacological tests, viz., (1) measuring their ability to inhibit the enzyme activity of isolated aldose reductase; (2) measuring their ability to reduce or inhibit sorbitol accumulation in the sciatic nerve and lens of acutely streptozotocinized (i.e., diabetic) rats; (3) measuring their ability to reverse already-elevated sorbitol levels in the sciatic nerve and lens of chronic streptozotocin-induced diabetic rats; (4) measuring their ability to prevent or inhibit galactitol formation in the lens of acutely galactosemic rats, and (5) measuring their ability to delay cataract formation and reduce the severity of lens opacities in chronic galactosemic rats.
(§2) The following spiro-3-heteroazolone compounds of Examples 4A, 4B, 6 and 10A, respectively, were tested for their ability to reduce or inhibit sorbitol accumulation in the sciatic nerve and lens of streptozotocinized (i.e., diabetic) rats by the procedure essentially described in U.S. Pat. No. 3,821,383. In the present study, the amount of sorbitol accumulation in the sciatic nerve and lens of each test animal was measured 27 hours after induction of diabetes. […]

[2] = system: sorbitol accumulation in the lens; assay: inhibition of sorbitol accumulation in the lens of streptozotocinized (diabetic) rats; format: in vivo, rat; conditions: oral, 0.1-10.0 mg./kg., in words
Method: as §1, §2

C[C@@H]1C[C@]2(NC(=O)NC2=O)c2cc(Cl)cnc2O1 [Example 10A, (4'S)(2'R)-6'-chloro-2',3'-dihydro-2'-methyl-spiro-[imidazolidine-4,4'-4'H-pyrano[2,3-b]pyridine]-2,5-dione]
inhibit the formation of sorbitol levels in the sciatic nerve [1]: to a significantly high degree | inhibit the formation of sorbitol levels in the lens [2]: to a significantly high degree
